According to patent publication US20260232752A1, “COMBINATION THERAPY METHODS, COMPOSITIONS AND KITS” (Accure Therapeutics, S.L., priority 2019, published 2026):

Experiments:
[1] = system: human neuroblastoma cell line SH-SY5Y; assay: Neuroprotection against H2O2 oxidative stress, MTT assay; format: cell-based; conditions: 1 hour preincubation at 0.03-40 μM, then H2O2 15 μM 30 minutes
Method: The objective of the study was to test the possible synergistic effect of the BN201-monomethylfumarate salt in a neuroprotective assay. Thus, BN201-monomethylfumarate salt obtained as indicated in example 5, was tested for its ability to protect the human neuroblastoma cell line SH-SY5Y against death induced by oxidative stress (i.e., hydrogen peroxide (H202)) using an MTT (3-(4,5-dimethylthiazol-2-yl)-2,5-diphenyltetrazolium bromide) cell proliferation assay.
SH-SY5Y cells were cultivated in 50% Eagle's minimum essential medium (EMEM), 50% Ham's F12 Nutrient Mixture, 10% fetal bovine serum (FBS), 2 mM L-Glu, and 1% penicillin/streptomycin. All of the cell cultures were maintained in a humidified incubator at 5% CO2 and at 37° C. SH-SY5Y cells were preincubated for 1 hour with BN201 alone, monomethyl fumarate alone, or BN201-monomethylfumarate salt at various concentrations (n=5; concentrations: 0.03 μM, 0.1 μM, 0.3 μM, 0.5 μM, 1 μM, 3 μM, 5 μM, 10 μM, 20 μM, 40 μM) and then H2O2 (15 μM) was added to induce stress. Preincubation with sodium pyruvate (10 mM) was used as a positive control. After 30 minutes of H2O2 incubation, the medium was changed and thiazolyl blue tetrazolium bromide (MTT; Sigma Aldrich; stock concentration 10 mg/ml) was added to each well at the final concentration of 0.5 mg/ml. After 2 hours of MTT incubation the cell medium was removed, and cells were resuspended in pure dimethyl sulfoxide (DMSO). Cell viability was determined by reading the absorbance at 570 nm. Each experiment was performed in quintuplicate.

[2] = system: experimental autoimmune encephalomyelitis (EAE) mouse model; assay: Study EAE-C05: clinical score in EAE mouse model with active comparators; format: in vivo; conditions: 100 mg/kg daily, after 5 days of treatment
Method: A second experiment (Study EAE-C05) was then performed using the same mouse model.
Study EAE-C05: In addition to two dose levels of BN201 and a placebo-treated group (pathological control group), the study design introduced two active comparators, dimethyl fumarate (DMF) and fingolimod (FTY720), and a sham group (group in which animals were manipulated as the pathological group but without MOG injection). All groups were administered daily. • sham control non-diseased placebo-treated animals (healthy control group); • EAE-affected placebo-treated animals (pathological control group); • EAE-affected animals treated orally with 15 mg/kg of DMF; • EAE-affected animals treated with 2 mg/kg of FTY720; • EAE-affected animals treated with BN201 at 50 or 100 mg/kg.
Clinical scores were assigned to assess disease severity using the following scale: 0=normal; 0.5=Partial tail paralysis; 1=Complete tail paralysis; 1.5=Tail paralysis and loss of righting reflex; 2=Partial hind limb paralysis/paralysis of one limb; 2.5=One limb paralysis and partial loss of activity of one other limb; 3=Bilateral hind limb paralysis; 4=Moribund; 5=exitus.
Therapeutic treatment was initiated on day 12 or 13, once each mouse started showing complete tail paralysis (Score 1).

[3] = system: EAE in C57BL6 mice immunized with MOG35-55; assay: Example 3: BN201 and DMF combination, progression of chronic EAE; format: in vivo, mouse; conditions: BN201 25 mg/kg i.p. alone (suboptimal), once a day six days per week from day 15
Method: Effect in the animal model of MS (i.e., EAE in C57BL6 mice immunized with MOG35-55), similar to Example 2.
Starting on day 15, mice were administered: • dimethyl fumarate (DMF) (group A, 10 mice), • BN201 (group B, 10 mice) • a combination thereof (group C, 10 mice) once a day for six days per week at suboptimal dosages (10 mg/kg for DMF, 25 mg/kg for BN201).
DMF was administered orally with a rigid cannula in a saline vehicle at a volume of 10 mL/kg, while BN201 was administered via i.p. injection in a saline vehicle at a volume of 5 mL/kg. Control mice received vehicle only via both oral and i.p. injection (group D, 10 mice) or nothing at all (group E, 2 mice).
The objective of the study was to evaluate the efficacy and safety of combination therapy with suboptimal doses of BN201 (25 mg/kg) and dimethyl-fumarate (DMF) (10 mg/kg) in the progression of chronic EAE in mice.
During a one week acclimation period starting on day −7, mice were distributed based on body weight stratification into different experimental groups. On day 0, mice were immunized subcutaneously in both hind pads with 150 μg of MOG peptide 35-55 (Spikem, Firenze) emulsified with 50 μg of Mycobacterium tuberculosis (H37Ra strain; Difco, Detroit, MI) in incomplete Freund's adjuvant (IFA). […]

CC(C)CN(CC(=O)N(CCCN1CCCC1=O)CC(N)=O)C(=O)CNCCc1ccccc1F [BN201, [N-(2-(2′-Fluorophenyl)ethyl)glycyl]-[N-(2-methylpropyl)glycyl]-N-[3-(2′-oxopyrrolidinyl)-propyl]glycinamide]
cell viability as a percentage compared to the control (protection from death induced by oxidative stress) [1]: partially rescued neurons from death induced by oxidative stress
clinical score compared to pathological control group [2]: significantly lower
course of EAE (clinical score) versus placebo [3]: suffered EAE similar to those mice treated with placebo
